Results published in patent US9532990B2 (Zhejiang DTRM Biopharma Co. Ltd., priority 2014, dated 2017).
Like-named read-outs stand apart in the source and are kept apart here.

Molecular target: BTK wild type (Homo sapiens (Human), UniProt Q06187)
Experiment: Inhibition assay of BTK kinase activity (HTRF)
Type: biochemical
Experimental: Inhibition Assay of BTK Kinase Activity:
The enzyme reaction mixture of BTK wild type standard HTRF assay contained 1 nM BTK wild type, 1 μM biotin-TK1 peptide, and 30 μM ATP in a buffer. The enzyme reaction were carried out at room temperature for 60 minutes. […] The plates were incubated at room temperature for 60 minutes and then read in the Envision plate reader.

[1] = all compounds with IC50 of less 10 nM, read-out: IC50 (BTK)

BTK wild type, sequence (Q06187 whole entry): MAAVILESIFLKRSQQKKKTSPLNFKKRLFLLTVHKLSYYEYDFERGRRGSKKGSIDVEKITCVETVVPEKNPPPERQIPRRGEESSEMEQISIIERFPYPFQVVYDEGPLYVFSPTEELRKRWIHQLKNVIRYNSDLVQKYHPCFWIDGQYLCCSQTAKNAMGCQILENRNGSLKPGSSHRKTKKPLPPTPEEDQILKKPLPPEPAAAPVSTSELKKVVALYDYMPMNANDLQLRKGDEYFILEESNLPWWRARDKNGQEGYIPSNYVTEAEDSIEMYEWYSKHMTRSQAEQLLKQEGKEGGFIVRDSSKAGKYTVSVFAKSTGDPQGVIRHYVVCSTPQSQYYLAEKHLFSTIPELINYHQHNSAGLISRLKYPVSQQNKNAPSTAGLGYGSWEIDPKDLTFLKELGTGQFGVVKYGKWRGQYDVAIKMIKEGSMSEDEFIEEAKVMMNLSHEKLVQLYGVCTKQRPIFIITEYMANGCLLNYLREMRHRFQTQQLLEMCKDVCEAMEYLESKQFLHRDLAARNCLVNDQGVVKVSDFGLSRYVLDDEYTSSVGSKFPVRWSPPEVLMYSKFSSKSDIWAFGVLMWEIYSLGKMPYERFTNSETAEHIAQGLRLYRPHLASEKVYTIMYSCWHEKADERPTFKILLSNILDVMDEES

Row | Structure (SMILES) | IC50 (read-out: BTK IC50) [nM] | IC50 [1] [nM] | IC50 [nM]
1 | C=CC(=O)N1CC[C@@H](n2nc(-c3ccc(Oc4ccnc(C(=O)NC)c4)cc3F)c3c(N)ncnc32)C1 [Compound 88, 4-(4-(1-((R)-1-acryloylpyrrolidin-3-yl)-4-amino-1H-pyrazolo[3,4-d]pyrimidin-3-yl)-3-fluorophenoxy)-N-methylpicolinamide] | 11 | – | –
2 | C=C(F)C(=O)N1CC[C@@H](n2nc(-c3ccc(Oc4c(F)c(F)cc(F)c4F)cc3F)c3c(N)ncnc32)C1 [Compound 106, 1-((R)-3-(4-amino-3-(2-fluoro-4-(2,3,5,6-tetrafluorophenoxy)phenyl)-1H-pyrazolo[3,4-d]pyrimidin-1-yl)pyrrolidin-1-yl)-2-fluoroprop-2-en-1-one] | 3 | < 10 | –
3 | C/C=C(\C(=O)OC)C(=O)N1CCCC(n2nc(-c3ccc(Oc4c(F)c(F)cc(F)c4F)cc3F)c3c(N)ncnc32)C1 (centres unmarked) [Compound 48, (Z)-methyl 2-(3-(4-amino-3-(2-fluoro-4-(2,3,5,6-tetrafluorophenoxy)phenyl)-1H-pyrazolo[3,4-d]pyrimidin-1-yl)piperidine-1-carbonyl)but-2-enoate] | 964 | – | –
4 | Nc1ncnc2c1c(-c1ccc(Oc3c(F)c(F)cc(F)c3F)cc1F)nn2C1CCC(N2C(=O)CSC2=O)CC1 (centres unmarked) [Compound 40, 3-(4-(4-amino-3-(2-fluoro-4-(2,3,5,6-tetrafluorophenoxy)phenyl)-1H-pyrazolo[3,4-d]pyrimidin-1-yl)cyclohexyl)thiazolidine-2,4-dione] | 1640 | – | –
5 | Nc1ncnc2c1c(-c1ccc(Oc3c(F)c(F)cc(F)c3F)cc1F)nn2C1CCCN(C(=O)CCl)C1 (centres unmarked) [Compound 61, 1-(3-(4-amino-3-(2-fluoro-4-(2,3,5,6-tetrafluorophenoxy)phenyl)-1H-pyrazolo[3,4-d]pyrimidin-1-yl)piperidin-1-yl)-2-chloroethanone] | 0.8 | < 10 | –
6 | C=CC(=O)N1CC[C@@H](n2nc(-c3ccc(Oc4nccc(Cl)n4)cc3F)c3c(N)ncnc32)C1 [Compound 96, 1-((R)-3-(4-amino-3-(4-(4-chloropyrimidin-2-yloxy)-2-fluorophenyl)-1H-pyrazolo[3,4-d]pyrimidin-1-yl)pyrrolidin-1-yl)prop-2-en-1-one] | 13 | – | –
7 | C=CC(=O)NCCn1nc(-c2ccc(Oc3c(F)c(F)cc(F)c3F)cc2F)c2c(N)ncnc21 [Compound 82, N-(2-(4-amino-3-(2-fluoro-4-(2,3,5,6-tetrafluorophenoxy)phenyl)-1H-pyrazolo[3,4-d]pyrimidin-1-yl)ethyl)acrylamide] | 25 | – | –
8 | Nc1ncnc2c1c(-c1ccc(Oc3c(F)c(F)cc(F)c3F)cc1F)nn2C1CCCN(C(=O)CC(=O)C2CC2)C1 (centres unmarked) [Compound 67, 1-(3-(4-amino-3-(2-fluoro-4-(2,3,5,6-tetrafluorophenoxy)phenyl)-1H-pyrazolo[3,4-d]pyrimidin-1-yl)piperidin-1-yl)-3-cyclopropylpropane-1,3-dione] | 586 | – | –
9 | C=CC(=O)N[C@@H]1CC[C@@H](n2nc(-c3ccc(Oc4cccc(F)c4)cc3F)c3c(N)ncnc32)C1 [Compound 16, N-((1r,3r)-3-(4-amino-3-(2-fluoro-4-(3-fluorophenoxy)phenyl)-1H-pyrazolo[3,4-d]pyrimidin-1-yl)cyclopentyl)acrylamide] | 3 | < 10 | –
10 | CN/C(=N\C#N)N1CCCC(n2nc(-c3ccc(Oc4c(F)c(F)cc(F)c4F)cc3F)c3c(N)ncnc32)C1 (centres unmarked) [Compound 54, 3-[4-amino-3-[2-fluoro-4-(2,3,5,6-fluorophenoxy)phenyl]-1H-pyrazolo[3,4-d]pyrimidine-1-yl]-N′-cyano-N-methyl-piperidine-1-carboxamidine] | 1620 | – | –
11 | C/C=C/C(=O)N1CC[C@@H](n2nc(-c3ccc(Oc4c(F)c(F)cc(F)c4F)cc3F)c3c(N)ncnc32)C1 [Compound 104, (E)-1-((R)-3-(4-amino-3-(2-fluoro-4-(2,3,5,6-tetrafluorophenoxy)phenyl)-1H-pyrazolo[3,4-d]pyrimidin-1-yl)pyrrolidin-1-yl)but-2-en-1-one] | 107 | – | –
12 | Nc1ncnc2c1c(-c1ccc(Oc3c(F)c(F)cc(F)c3F)cc1F)nn2[C@@H]1CCN(C(=O)c2nc3ccccc3o2)C1 [Compound 110, ((R)-3-(4-amino-3-(2-fluoro-4-(2,3,5,6-tetrafluorophenoxy)phenyl)-1H-pyrazolo[3,4-d]pyrimidin-1-yl)pyrrolidin-1-yl)(benzo[d]oxazol-2-yl)methanone] | 5270 | – | –
13 | N=C(N)NC(=O)N1CCCC(n2nc(-c3ccc(Oc4c(F)c(F)cc(F)c4F)cc3F)c3c(N)ncnc32)C1 (centres unmarked) [Compound 43, N-[3-[4-amino-3-[2-fluoro-4-(2,3,5,6-trifluorophenoxy)phenyl]-1H-pyrazolo[3,4-d]pyrimidin-1-yl]piperidine-1-carbonyl] formamidine] | 131 | – | –
14 | CNC(=O)/C=C/CNC(=O)N1CC[C@@H](n2nc(-c3ccc(Oc4c(F)c(F)cc(F)c4F)cc3F)c3c(N)ncnc32)C1 [Compound 76, (3R)-3-(4-amino-3-(2-fluoro-4-(2,3,5,6-tetrafluorophenoxy)phenyl)-1H-pyrazolo[3,4-d]pyrimidin-1-yl)-N-(4-(methylamino)-4-oxobut-2-enyl)pyrrolidine-1-carboxamide] | 27 | – | –
15 | C=C(CO)C(=O)N1CCCC(n2nc(-c3ccc(Oc4c(F)c(F)cc(F)c4F)cc3F)c3c(N)ncnc32)C1 (centres unmarked) [Compound 50, 1-(3-(4-amino-3-(2-fluoro-4-(2,3,5,6-tetrafluorophenoxy)phenyl)-1H-pyrazolo[3,4-d]pyrimidin-1-yl)piperidin-1-yl)-2-(hydroxymethyl)prop-2-en-1-one] | 87 | – | –
16 | N#C/C=C\C(=O)N1CC[C@@H](n2nc(-c3ccc(Oc4c(F)c(F)cc(F)c4F)cc3F)c3c(N)ncnc32)C1 [Compound 98, (Z)-4-((R)-3-(4-amino-3-(2-fluoro-4-(2,3,5,6-tetrafluorophenoxy)phenyl)-1H-pyrazolo[3,4-d]pyrimidin-1-yl)pyrrolidin-1-yl)-4-oxobut-2-enenitrile] | 2 | < 10 | –
17 | C=C(C#N)CN1CCCC(n2nc(-c3ccc(Oc4c(F)c(F)cc(F)c4F)cc3F)c3c(N)ncnc32)C1 (centres unmarked) [Compound 70, 2-((3-(4-amino-3-(2-fluoro-4-(2,3,5,6-tetrafluorophenoxy)phenyl)-1H-pyrazolo[3,4-d]pyrimidin-1-yl)piperidin-1-yl)methyl)acrylonitrile] | 17 | – | –
18 | C=CC(=O)NCC1CCC(n2nc(-c3ccc(Oc4c(F)c(F)cc(F)c4F)cc3F)c3c(N)ncnc32)C1 (centres unmarked) [Compound 28, N-((3-(4-amino-3-(2-fluoro-4-(2,3,5,6-tetrafluorophenoxy)phenyl)-1H-pyrazolo[3,4-d]pyrimidin-1-yl)cyclopentyl)methyl)acrylamide] | 7 | – | –
19 | CNC(=O)CN1CCCC(n2nc(-c3ccc(Oc4c(F)c(F)cc(F)c4F)cc3F)c3c(N)ncnc32)C1 (centres unmarked) [Compound 56, 2-(3-(4-amino-3-(2-fluoro-4-(2,3,5,6-tetrafluorophenoxy)phenyl)-1H-pyrazolo[3,4-d]pyrimidin-1-yl)piperidin-1-yl)-N-methylacetamide] | 365 | – | –
20 | Nc1ncnc2c1c(-c1ccc(Oc3c(F)c(F)cc(F)c3F)cc1F)nn2[C@@H]1CCN(C(=O)c2ncco2)C1 [Compound 109, ((R)-3-(4-amino-3-(2-fluoro-4-(2,3,5,6-tetrafluorophenoxy)phenyl)-1H-pyrazolo[3,4-d]pyrimidin-1-yl)pyrrolidin-1-yl)(oxazol-2-yl)methanone] | 1280 | – | –
21 | C=CC(=O)NCC(C)n1nc(-c2ccc(Oc3c(F)c(F)cc(F)c3F)cc2F)c2c(N)ncnc21 (centres unmarked) [Compound 84, N-(2-(4-amino-3-(2-fluoro-4-(2,3,5,6-tetrafluorophenoxy)phenyl)-1H-pyrazolo[3,4-d]pyrimidin-1-yl)propyl)acrylamide] | 16 | – | –
22 | C=CC(=O)N1CCCC(n2nc(-c3ccc(Oc4c(F)c(F)cc(F)c4F)cc3F)c3c(N)ncnc32)C1 (centres unmarked) [Compound 11, 1-(3-(4-amino-3-(2-fluoro-4-(2,3,5,6-tetrafluorophenoxy)phenyl)-1H-pyrazolo[3,4-d]pyrimidin-1-yl)piperidin-1-yl)prop-2-en-1-one] | 0.8 | < 10 | –
23 | C=CC(=O)N1CCCC(n2nc(-c3ccc(Oc4cccc(F)c4[N+](=O)[O-])cc3F)c3c(N)ncnc32)C1 (centres unmarked) [Compound 12, 1-(3-(4-amino-3-(2-fluoro-4-(3-fluoro-2-nitrophenoxy)phenyl)-1H-pyrazolo[3,4-d]pyrimidin-1-yl)piperidin-1-yl)prop-2-en-1-one] | 2 | < 10 | –
24 | C=CC(=O)N1CC[C@@H](n2nc(-c3ccc(C(=O)c4ccccc4F)cc3F)c3c(N)ncnc32)C1 [Compound 72, 1-((R)-3-(4-amino-3-(2-fluoro-4-(2-fluorobenzoyl)phenyl)-1H-pyrazolo[3,4-d]pyrimidin-1-yl)pyrrolidin-1-yl)prop-2-en-1-one] | 1 | < 10 | –
25 | Nc1ncnc2c1c(-c1ccc(Oc3c(F)c(F)cc(F)c3F)cc1F)nn2CCCN1C(=O)C=CC1=O [Compound 38, 1-(3-(4-amino-3-(2-fluoro-4-(2,3,5,6-tetrafluorophenoxy)phenyl)-1H-pyrazolo[3,4-d]pyrimidin-1-yl)propyl)-1H-pyrrole-2,5-dione] | 379 | – | –
26 | C=CC(=O)NC(C)(C)Cn1nc(-c2ccc(Oc3c(F)c(F)cc(F)c3F)cc2F)c2c(N)ncnc21 [Compound 87, N-(1-(4-amino-3-(2-fluoro-4-(2,3,5,6-tetrafluorophenoxy)phenyl)-1H-pyrazolo[3,4-d]pyrimidin-1-yl)-2-methylpropan-2-yl)acrylamide] | 8 | – | < 10
27 | Nc1ncnc2c1c(-c1ccc(Oc3c(F)c(F)cc(F)c3F)cc1F)nn2[C@@H]1CCN(C(=O)CF)C1 [Compound 111, 1-((R)-3-(4-amino-3-(2-fluoro-4-(2,3,5,6-tetrafluorophenoxy)phenyl)-1H-pyrazolo[3,4-d]pyrimidin-1-yl)pyrrolidin-1-yl)-2-fluoroethanone] | 43 | – | –
